11 compounds from patent US11427548B2 (Arvinas Operations, Inc., priority 2015, dated 2022) can be followed below.

The target of this experiment is T1, Androgen Receptor (Homo sapiens, UniProt P10275).
T1 construct: endogenous in cells; host or cells: VCaP cells
T1 sequence (P10275 1-920): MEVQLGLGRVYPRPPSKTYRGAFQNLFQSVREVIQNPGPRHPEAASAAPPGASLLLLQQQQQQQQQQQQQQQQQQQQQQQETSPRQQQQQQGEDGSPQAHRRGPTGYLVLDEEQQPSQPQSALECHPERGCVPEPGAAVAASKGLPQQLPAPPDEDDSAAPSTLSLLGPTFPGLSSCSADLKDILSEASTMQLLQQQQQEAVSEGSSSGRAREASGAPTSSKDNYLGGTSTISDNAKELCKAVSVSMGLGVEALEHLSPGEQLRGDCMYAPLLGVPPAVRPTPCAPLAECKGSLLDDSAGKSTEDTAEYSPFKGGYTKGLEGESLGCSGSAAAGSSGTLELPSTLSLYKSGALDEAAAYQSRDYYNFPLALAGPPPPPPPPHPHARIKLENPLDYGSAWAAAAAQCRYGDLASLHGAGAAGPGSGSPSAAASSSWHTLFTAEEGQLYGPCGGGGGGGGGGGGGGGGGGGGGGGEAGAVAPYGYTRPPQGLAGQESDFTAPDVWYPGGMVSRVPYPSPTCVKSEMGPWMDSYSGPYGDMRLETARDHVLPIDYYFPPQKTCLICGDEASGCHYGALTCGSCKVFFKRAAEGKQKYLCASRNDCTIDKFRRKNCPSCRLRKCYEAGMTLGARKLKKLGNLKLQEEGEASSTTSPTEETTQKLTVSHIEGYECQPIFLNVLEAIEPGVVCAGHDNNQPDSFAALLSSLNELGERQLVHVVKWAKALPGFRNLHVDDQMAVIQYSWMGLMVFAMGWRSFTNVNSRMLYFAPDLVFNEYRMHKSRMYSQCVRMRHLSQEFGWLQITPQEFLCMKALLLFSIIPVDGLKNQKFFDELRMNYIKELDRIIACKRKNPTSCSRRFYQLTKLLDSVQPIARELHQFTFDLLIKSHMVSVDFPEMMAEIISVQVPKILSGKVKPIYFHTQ
The experiment in a line: Androgen Receptor ELISA assay (PathScan AR ELISA) in VCaP cells: AR degradation, Dmax and DC50. Type of experiment: cell-based. The settings on record: VCaP cells, Table 36; for DC50: read-out: VCaP DC50; for Dmax: VCaP, read-out: VCaP Dmax (%). The essentials:
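After 24 h exposure of VCaP cells (charcoal-stripped serum, 0.1 nM R1881 agonist, 0.1% DMSO) to seven half-log compound concentrations, residual AR in lysates was measured by PathScan ELISA (TMB absorbance, 450 nm). Cells were plated at 30,000/well and grown at least 3 days beforehand.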
In general terms: In an ELISA, binding on a coated surface is turned into a signal by an enzyme label.

Consider `COc1cc(C#N)ccc1[C@H](C)NC(=O)[C@@H]1C[C@@H](O)CN1C(=O)[C@@H](NC(=O)COCCN1CCN(c2ccc(C(=O)N[C@H]3C(C)(C)[C@H](Oc4ccc(C#N)c(Cl)c4)C3(C)C)cn2)CC1)C(C)(C)C` [Example 785, N-((1r,3r)-3-(3-chloro-4-cyanophenoxy)-2,2,4,4-tetramethylcyclobutyl)-6-(4-(2-(2-(((S)-1-((2S,4R)-2-(((S)-1-(4-cyano-2-methoxyphenyl)ethyl)carbamoyl)-4-hydroxypyrrolidin-1-yl)-3,3-dimethyl-1-oxobutan-2-yl)amino)-2-oxoethoxy)ethyl)piperazin-1-yl)nicotinamide], for which the DC50 is below 50 nM and the Dmax was 51 to 70%.

Take `Cc1ncsc1-c1ccc([C@H](C)NC(=O)C2C[C@@H](O)CN2C(=O)[C@@H](NC(=O)COCCN2[C@H](C)CN(c3ccc(C(=O)N[C@H]4C(C)(C)[C@H](Oc5ccc(C#N)c(Cl)c5)C4(C)C)cn3)C[C@@H]2C)C(C)(C)C)cc1` (stereo partly drawn) [Example 786, N-((1r,3R)-3-(3-chloro-4-cyanophenoxy)-2,2,4,4-tetramethylcyclobutyl)-6-((3S,5R)-4-(2-(2-(((2S)-1-((4R)-4-hydroxy-2-(((S)-1-(4-(4-methylthiazol-5-yl)phenyl)ethyl)carbamoyl)pyrrolidin-1-yl)-3,3-dimethyl-1-oxobutan-2-yl)amino)-2-oxoethoxy)ethyl)-3,5-dimethylpiperazin-1-yl)nicotinamide]: the DC50 is below 50 nM and the greatest degradation seen (Dmax) was above 71%.

For `Cc1ncsc1-c1ccc([C@H](C)NC(=O)C2C[C@@H](O)CN2C(=O)[C@@H](NC(=O)COCCN2C3CCC2CN(c2ccc(C(=O)NC4C(C)(C)C(Oc5ccc(C#N)c(Cl)c5)C4(C)C)cn2)C3)C(C)(C)C)cc1` (stereo partly drawn) [Example 787, N-((1r,3r)-3-(3-chloro-4-cyanophenoxy)-2,2,4,4-tetramethylcyclobutyl)-6-(8-(2-(2-(((2S)-1-((4R)-4-hydroxy-2-(((S)-1-(4-(4-methylthiazol-5-yl)phenyl)ethyl)carbamoyl)pyrrolidin-1-yl)-3,3-dimethyl-1-oxobutan-2-yl)amino)-2-oxoethoxy)ethyl)-3,8-diazabicyclo[3.2.1]octan-3-yl)nicotinamide], the “VCaP Dmax (%)” value is given as “++++ (71% ≤ Dmax)” and the DC50 is below 50 nM.

Regarding `Cc1ncsc1-c1ccc([C@H](C)NC(=O)C2C[C@@H](O)CN2C(=O)[C@@H](NC(=O)COCCN2CCN(c3ccc(C(=O)N[C@H]4C(C)(C)[C@H](Oc5ccc(C#N)c(Cl)c5)C4(C)C)cn3)C[C@H]2CO)C(C)(C)C)cc1` (stereo partly drawn) [Example 788, N-((1r,3S)-3-(3-chloro-4-cyanophenoxy)-2,2,4,4-tetramethylcyclobutyl)-6-((3S)-4-(2-(2-(((2S)-1-((4R)-4-hydroxy-2-(((S)-1-(4-(4-methylthiazol-5-yl)phenyl)ethyl)carbamoyl)pyrrolidin-1-yl)-3,3-dimethyl-1-oxobutan-2-yl)amino)-2-oxoethoxy)ethyl)-3-(hydroxymethyl)piperazin-1-yl)nicotinamide], the DC50 was below 50 nM and the greatest degradation seen (Dmax) was above 71%.

Consider `Cc1ncsc1-c1ccc([C@H](C)NC(=O)C2C[C@@H](O)CN2C(=O)C(NC(=O)CN2CCN(CCN3CCN(c4ccc(C(=O)N[C@H]5C(C)(C)[C@H](Oc6ccc(C#N)c(Cl)c6)C5(C)C)cn4)CC3)CC2)C(C)(C)C)cc1` (stereo partly drawn) [Example 789, N-((1r,3r)-3-(3-chloro-4-cyanophenoxy)-2,2,4,4-tetramethylcyclobutyl)-6-(4-(2-(4-(2-(((S)-1-((2S,4R)-4-hydroxy-2-(((S)-1-(4-(4-methylthiazol-5-yl)phenyl)ethyl)carbamoyl)pyrrolidin-1-yl)-3,3-dimethyl-1-oxobutan-2-yl)amino)-2-oxoethyl)piperazin-1-yl)ethyl)piperazin-1-yl)nicotinamide], for which the DC50 was below 50 nM and the Dmax is above 71%.

On to `Cc1ncsc1-c1ccc([C@H](C)NC(=O)[C@@H]2C[C@@H](O)CN2C(=O)[C@@H](NC(=O)COCCN2CCN(Cc3cc(C(=O)N[C@@H](C)Cn4ccc(-c5ccc(C#N)c(Cl)c5)n4)n[nH]3)CC2)C(C)(C)C)cc1` [Example 790, N-((S)-1-(3-(3-chloro-4-cyanophenyl)-1H-pyrazol-1-yl)propan-2-yl)-5-((4-(2-(2-(((S)-1-((2S,4R)-4-hydroxy-2-(((S)-1-(4-(4-methylthiazol-5-yl)phenyl)ethyl)carbamoyl)pyrrolidin-1-yl)-3,3-dimethyl-1-oxobutan-2-yl)amino)-2-oxoethoxy)ethyl)piperazin-1-yl)methyl)-1H-pyrazole-3-carboxamide], for which the DC50 is above 501 nM and the greatest degradation seen (Dmax) was in the range of 26 to 50%.

Regarding `Cc1ncsc1-c1ccc([C@H](C)NC(=O)[C@@H]2C[C@@H](O)CN2C(=O)C(NC(=O)CO[C@H]2CCCC[C@@H]2N2CCN(CCOc3ccc(C(=O)N[C@H]4C(C)(C)[C@H](Oc5ccc(C#N)c(Cl)c5)C4(C)C)cc3)CC2)C(C)(C)C)cc1` (stereo partly drawn) [Example 791, (2S,4R)-1-((S)-2-(2-(((1S,2S)-2-(4-(2-(4-(((1r,3r)-3-(3-chloro-4-cyanophenoxy)-2,2,4,4-tetramethylcyclobutyl)carbamoyl)phenoxy)ethyl)piperazin-1-yl)cyclohexyl)oxy)acetamido)-3,3-dimethylbutanoyl)-4-hydroxy-N-((S)-1-(4-(4-methylthiazol-5-yl)phenyl)ethyl)pyrrolidine-2-carboxamide], the 50% degradation concentration (DC50) was above 501 nM and the Dmax is below 25%.

Regarding `Cc1ncsc1-c1ccc([C@H](C)NC(=O)[C@@H]2C[C@@H](O)CN2C(=O)C(NC(=O)CO[C@@H]2CCCC[C@H]2N2CCN(CCOc3ccc(C(=O)N[C@H]4C(C)(C)[C@H](Oc5ccc(C#N)c(Cl)c5)C4(C)C)cc3)CC2)C(C)(C)C)cc1` (stereo partly drawn) [Example 792, (2S,4R)-1-((S)-2-(2-(((1R,2R)-2-(4-(2-(4-(((1r,3r)-3-(3-chloro-4-cyanophenoxy)-2,2,4,4-tetramethylcyclobutyl)carbamoyl)phenoxy)ethyl)piperazin-1-yl)cyclohexyl)oxy)acetamido)-3,3-dimethylbutanoyl)-4-hydroxy-N-((S)-1-(4-(4-methylthiazol-5-yl)phenyl)ethyl)pyrrolidine-2-carboxamide], the DC50 was above 501 nM and the Dmax was 26 to 50%.

For the compound `COc1cc(-c2scnc2C)ccc1CNC(=O)C1C[C@@H](O)CN1C(=O)[C@@H](NC(=O)COCCN1CCN(c2ccc(C(=O)N[C@H]3C(C)(C)[C@H](Oc4ccc(C#N)c(Cl)c4)C3(C)C)cn2)CC1)C(C)(C)C` (stereo partly drawn) [Example 793, N-((1r,3r)-3-(3-chloro-4-cyanophenoxy)-2,2,4,4-tetramethylcyclobutyl)-6-(4-(2-(2-(((S)-1-((2S,4R)-4-hydroxy-2-((2-methoxy-4-(4-methylthiazol-5-yl)benzyl)carbamoyl)pyrrolidin-1-yl)-3,3-dimethyl-1-oxobutan-2-yl)amino)-2-oxoethoxy)ethyl)piperazin-1-yl)nicotinamide], the DC50 is below 50 nM and the Dmax is above 71%.

On to `Cc1ncsc1-c1ccc([C@H](C)NC(=O)[C@@H]2C[C@@H](O)CN2C(=O)[C@@H](NC(=O)CN2CC(N3CCN(c4ccc(C(=O)N[C@H]5C(C)(C)[C@H](Oc6ccc(C#N)c(Cl)c6)C5(C)C)cn4)CC3)C2)C(C)(C)C)cc1` [Example 794, N-((1r,3r)-3-(3-chloro-4-cyanophenoxy)-2,2,4,4-tetramethylcyclobutyl)-6-(4-(1-(2-(((S)-1-((2S,4R)-4-hydroxy-2-(((S)-1-(4-(4-methylthiazol-5-yl)phenyl)ethyl)carbamoyl)pyrrolidin-1-yl)-3,3-dimethyl-1-oxobutan-2-yl)amino)-2-oxoethyl)azetidin-3-yl)piperazin-1-yl)nicotinamide], for which the DC50 is below 50 nM and the Dmax lay within 51 to 70%.

Regarding `Cc1ncsc1-c1ccc([C@H](C)NC(=O)[C@@H]2C[C@@H](O)CN2C(=O)[C@@H](NC(=O)CN2CCN(C3CN(c4ccc(C(=O)N[C@H]5C(C)(C)[C@H](Oc6ccc(C#N)c(Cl)c6)C5(C)C)cn4)C3)CC2)C(C)(C)C)cc1` [Example 795, N-((1r,3r)-3-(3-chloro-4-cyanophenoxy)-2,2,4,4-tetramethylcyclobutyl)-6-(3-(4-(2-(((S)-1-((2S,4R)-4-hydroxy-2-(((S)-1-(4-(4-methylthiazol-5-yl)phenyl)ethyl)carbamoyl)pyrrolidin-1-yl)-3,3-dimethyl-1-oxobutan-2-yl)amino)-2-oxoethyl)piperazin-1-yl)azetidin-1-yl)nicotinamide], the half-maximal degradation concentration (DC50) is below 50 nM and the Dmax is above 71%.

Usually DC50 stands for the concentration giving 50% degradation. Usually Dmax stands for the greatest extent of degradation seen.
